Tests used:
[1] = test system: LAPC4 xenografts grown in orchiectomized mice; assay: Xenograft cortisol metabolism: [3H]-cortisol inactivation in freshly harvested tumors; format: in vivo, mouse; settings: CRPC xenograft tumors from enzalutamide-treated mice vs orchiectomy alone
Protocol: Xenograft metabolism. LAPC4 cells (˜10^7) were injected subcutaneously with Matrigel (Corning) into surgically orchiectomized NSG mice that were implanted with DHEA pellets (5 mg/pellet, 90-day sustained-release, Innovative Research of America). Fresh xenografts were harvested and ˜40 mg xenograft tissues were minced, and cultured in IMEM with 10% FBS at 37° C. with a mixture of [^3H]-cortisol and non-radiolabeled cortisol. Aliquots of media were collected at the indicated time points, steroids were extracted and concentrated as described above.

[2] = test system: GR, HSD11B2, HSD11B1 transcripts; assay: qPCR of GR, HSD11B2 and HSD11B1 transcripts; format: cell-based, human
Protocol: LAPC4 cells were treated with Enz for 36 days and then seeded into 12 well plates coated with poly-DL-ornithine at 50% confluence. After incubation overnight, the cells were transfected with 11β-HSD2-FLAG plasmid for 48 hours by using the TranslT®-2020 Transfection Reagent (Mirus) according to the protocol provided by the manufacturer, then maintained in phenol-red-free medium with 5% Charcoal:Dextran-stripped FBS for 48 hours before being treated with the indicated drugs. Total RNA was extracted with a GenElute Mammalian Total RNA miniprep kit (Sigma-Aldrich) and 1 μg RNA was reverse-transcribed to cDNA with the iScript cDNA Synthesis Kit (Bio-Rad). An ABI 7500 Real-Time PCR machine (Applied Biosystems) was used to perform the qPCR analysis, using iTaq Fast SYBR Green Supermix with ROX (Bio-Rad) in 96-well plates at a final reaction volume of 10 μl. The qPCR analysis was carried out in triplicate with suitable primers. Each mRNA transcript was quantitated by normalizing the sample values to RPLP0 and to vehicle treated cells (for steroid treated cells). All gene expression studies were repeated in independent experiments.

AMFR = assay: Immunoblot of AMFR; format: cell-based, human; settings: enzalutamide treatment, LAPC4 cells and patient tissues
Protocol: For protein analysis, immunoblots were performed as described previously. Li et al., J Clin Endocrinol Metab 98, E1189-1197 (2013). Briefly, total cellular protein was extracted with ice cold RIPA lysis buffer (Sigma-Aldrich) containing protease inhibitors (Roche). 30-50 μg protein was separated by 8% SDS-PAGE gel and then transferred to a nitrocellulose membrane (Millipore). After incubating with the anti-11β-HSD2 antibody (Santa Cruz; 1:3000), anti-11β-HSD1 antibody (Santa Cruz; 1:1000), GR antibody (BD Biosciences; 1:1000), anti-Erlin-2 antibody (Cell Signaling Technology: 1:1000) or anti-AMFR antibody (Proteintech; 1:1000) overnight at 4° C., the appropriate secondary antibody was incubated for 1 hour at room temperature. The chemiluminescent detection system (Thermo Scientific) was used to detect the bands with peroxidase activity. An anti-β-actin antibody (Sigma-Aldrich; 1:5000) was used as a control for sample loading.

[3] = test system: LAPC4 human prostate cancer cell line; assay: Cell line cortisol metabolism: conversion of [3H]-cortisol to cortisone, HPLC
[4] = long-term Enz treatment, LAPC4 and VCaP

CNC(=O)c1ccc(N2C(=S)N(c3ccc(C#N)c(C(F)(F)F)c3)C(=O)C2(C)C)cc1F [enzalutamide]
inactivation of [3H]-cortisol by conversion to cortisone [1]: impaired capability of inactivating [^3H]-cortisol
expression of GR, HSD11B2 or HSD11B1 transcripts ([2]; LAPC4, 24 hours (acute)): no acute effect on expression of GR, HSD11B2 or HSD11B1
GR transcript [2, 4]: GR transcript increases
HSD11B2 mRNA [2, 4]: No suppression of HSD11B2 mRNA
AMFR expression (AMFR): did not consistently increase AMFR expression
cortisol levels / conversion of [3H]-cortisol to cortisone ([3]; long enzalutamide exposure (36 days), LAPC4, cells and media): sustains cortisol levels by retarding conversion to cortisone in cells and media
cortisol metabolism ([3]; short term Enz treatment (24 hours), LAPC4): does not affect cortisol metabolism

Source: US20180296531A1, “STIMULATION OF 11B-HSD2 EXPRESSION TO IMPROVE HORMONAL THERAPY OF STEROID-DEPENDENT DISEASE” (THE CLEVELAND CLINIC FOUNDATION, priority 2015, published 2018)
